Laboratory results as given in patent US20240010634A1, “PYRIMIDINYL SULFONAMIDES AS INHIBITORS OF ACK1/TNK2 TYROSINE KINASE” (H. LEE MOFFITT CANCER CENTER AND RESEARCH INSTITUTE, INC., priority 2020, published 2024).
Where “and” joins values, the source holds several entries; their conditions need not be identical. Equal values may be shown once.

Key:
ACK1 [1] = target: T1, ACK1 (Homo sapiens (Human), UniProt Q07912); experiment: Reaction Biology 33P Hotspot assay; type: biochemical
MDA-MB-231 = experiment: Cell viability (MDA-MB-231); type: cell-based; conditions: Homo sapiens
UKE1 = experiment: Cell viability (UKE1); type: cell-based
ACK1 [2] = target: T1, ACK1; experiment: ACK1 IC50 (Table 1, method not described); type: biochemical

T1 sequence (Q07912 whole entry): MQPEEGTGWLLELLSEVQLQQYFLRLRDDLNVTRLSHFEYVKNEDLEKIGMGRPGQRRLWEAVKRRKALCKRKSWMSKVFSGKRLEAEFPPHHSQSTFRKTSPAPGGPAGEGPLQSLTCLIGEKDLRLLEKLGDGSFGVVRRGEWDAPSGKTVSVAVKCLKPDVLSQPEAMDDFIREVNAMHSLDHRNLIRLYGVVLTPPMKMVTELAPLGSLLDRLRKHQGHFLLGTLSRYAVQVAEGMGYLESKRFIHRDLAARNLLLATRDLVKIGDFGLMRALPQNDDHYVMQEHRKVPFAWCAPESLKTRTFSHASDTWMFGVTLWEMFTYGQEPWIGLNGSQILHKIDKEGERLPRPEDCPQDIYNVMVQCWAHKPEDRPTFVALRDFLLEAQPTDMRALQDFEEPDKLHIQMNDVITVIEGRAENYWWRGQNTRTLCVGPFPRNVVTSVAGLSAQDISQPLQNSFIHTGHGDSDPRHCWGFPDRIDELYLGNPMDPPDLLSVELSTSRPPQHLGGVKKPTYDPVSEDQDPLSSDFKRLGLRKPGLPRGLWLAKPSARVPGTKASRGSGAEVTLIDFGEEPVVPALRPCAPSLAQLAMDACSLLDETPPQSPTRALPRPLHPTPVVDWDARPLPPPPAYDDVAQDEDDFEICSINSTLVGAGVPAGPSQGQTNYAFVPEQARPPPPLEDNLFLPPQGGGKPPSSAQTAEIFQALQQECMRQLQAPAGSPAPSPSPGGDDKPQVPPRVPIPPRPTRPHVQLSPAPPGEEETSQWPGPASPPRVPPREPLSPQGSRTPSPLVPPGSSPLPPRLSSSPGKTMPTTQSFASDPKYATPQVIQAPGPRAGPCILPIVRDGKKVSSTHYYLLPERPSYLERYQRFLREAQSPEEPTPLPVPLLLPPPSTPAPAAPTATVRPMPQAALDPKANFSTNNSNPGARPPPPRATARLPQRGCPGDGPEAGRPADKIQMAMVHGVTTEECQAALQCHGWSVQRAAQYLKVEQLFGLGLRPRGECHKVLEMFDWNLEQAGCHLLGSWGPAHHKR

SMILES: COc1cc(N2CCN(C)CC2)ccc1Nc1ncc(Cl)c(Nc2ccc(NS(=O)(=O)C(C)(C)C)cc2)n1 [N-(4-((5-chloro-2-((2-methoxy-4-(4-methylpiperazin-1-yl)phenyl)amino)pyrimidin-4-yl)amino)phenyl)-2-methylpropane-2-sulfonamide]
- IC50 (ACK1 [1]): 17.5 nM

SMILES: CC(C)Oc1cc(Nc2ncc(Cl)c(Nc3ccc(NS(=O)(=O)C(C)(C)C)cc3)n2)ccc1-c1cnn(C)c1 [N-(4-((5-chloro-2-((3-isopropoxy-4-(1-methyl-1H-pyrazol-4-yl)phenyl)amino)pyrimidin-4-yl)amino)phenyl)-2-methylpropane-2-sulfonamide]
- IC50 (ACK1 [1]): 75.9 nM

SMILES: Cc1cnc(Nc2ccc(N3CCN(C)CC3)c(OC(C)C)c2)nc1Nc1ccc(Cl)c(NS(=O)(=O)C(C)(C)C)c1 [N-(2-chloro-5-((2-((3-isopropoxy-4-(4-methylpiperazin-1-yl)phenyl)amino)-5-methylpyrimidin-4-yl)amino)phenyl)-2-methylpropane-2-sulfonamide]
- IC50 (ACK1 [1]): 14 nM
- EC50 (MDA-MB-231): 220 nM
- EC50 (UKE1): 850 nM

SMILES: COc1cc(N2CCN(C)CC2)c(F)cc1Nc1ncc(C)c(Nc2cccc(NS(=O)(=O)C(C)(C)C)c2)n1 [N-(3-((2-((5-fluoro-2-methoxy-4-(4-methylpiperazin-1-yl)phenyl)amino)-5-methylpyrimidin-4-yl)amino)phenyl)-2-methylpropane-2-sulfonamide]
- IC50 (ACK1 [1]): 16.9 nM

SMILES: COc1cc(-c2cnn(C)c2)ccc1Nc1ncc(C)c(Nc2cccc(NS(=O)(=O)C(C)(C)C)c2)n1 [N-(3-((2-((2-methoxy-4-(1-methyl-1H-pyrazol-4-yl)phenyl)amino)-5-methylpyrimidin-4-yl)amino)phenyl)-2-methylpropane-2-sulfonamide]
- IC50 (ACK1 [1]): 15.2 nM

SMILES: COc1cc(Nc2ncc(C)c(Nc3cccc(NS(=O)(=O)C(C)(C)C)c3)n2)ccc1-c1cnn(C)c1 [N-(3-((2-((3-methoxy-4-(1-methyl-1H-pyrazol-4-yl)phenyl)amino)-5-methylpyrimidin-4-yl)amino)phenyl)-2-methylpropane-2-sulfonamide]
- IC50 (ACK1 [1]): 19 nM

SMILES: COc1cc(N2CCN(C)CC2)c(F)cc1Nc1ncc(C)c(Nc2ccc(NS(C)(=O)=O)cc2)n1 [N-(4-((2-((5-fluoro-2-methoxy-4-(4-methylpiperazin-1-yl)phenyl)amino)-5-methylpyrimidin-4-yl)amino)phenyl)methanesulfonamide]
- IC50 (ACK1 [1]): 14.8 nM

SMILES: CC(C)Oc1cc(Nc2ncc(Cl)c(Nc3cccc(NS(=O)(=O)C(C)(C)C)c3)n2)ccc1N1CCN(C)CC1 [N-(3-((5-chloro-2-((3-isopropoxy-4-(4-methylpiperazin-1-yl)phenyl)amino)pyrimidin-4-yl)amino)phenyl)-2-methylpropane-2-sulfonamide]
- IC50 (ACK1 [1]): 15 nM

SMILES: COc1cc(Nc2ncc(C)c(Nc3ccc(NS(=O)(=O)C(C)(C)C)cc3)n2)ccc1N1CCN(C)CC1 [N-(4-((2-((3-methoxy-4-(4-methylpiperazin-1-yl)phenyl)amino)-5-methylpyrimidin-4-yl)amino)phenyl)-2-methylpropane-2-sulfonamide]
- IC50 (ACK1 [1]): 15.9 nM

SMILES: Cc1cnc(Nc2ccc(-c3cnn(C)c3)c(OC(C)C)c2)nc1Nc1cccc(NS(=O)(=O)C(C)(C)C)c1 [N-(3-((2-((3-isopropoxy-4-(1-methyl-1H-pyrazol-4-yl)phenyl)amino)-5-methylpyrimidin-4-yl)amino)phenyl)-2-methylpropane-2-sulfonamide]
- IC50 (ACK1 [1]): 26 nM

SMILES: Cc1cnc(Nc2ccc(OCC3CCOCC3)cc2)nc1Nc1cccc(NS(=O)(=O)C(C)(C)C)c1 [2-methyl-N-(3-((5-methyl-2-((4-((tetrahydro-2H-pyran-4-yl)methoxy)phenyl)amino)pyrimidin-4-yl)amino)phenyl)propane-2-sulfonamide]
- IC50 (ACK1 [1]): 26 nM

SMILES: COc1cc(N2CCN(C)CC2)ccc1Nc1ncc(C)c(Nc2ccc(Cl)c(NS(=O)(=O)C(C)(C)C)c2)n1 [N-(2-chloro-5-((2-((2-methoxy-4-(4-methylpiperazin-1-yl)phenyl)amino)-5-methylpyrimidin-4-yl)amino)phenyl)-2-methylpropane-2-sulfonamide]
- IC50 (ACK1 [2]): 33.2 nM

SMILES: COc1cc(-n2cccn2)ccc1Nc1ncc(C)c(Nc2cccc(NS(=O)(=O)C(C)(C)C)c2)n1 [N-(3-((2-((2-methoxy-4-(1H-pyrazol-1-yl)phenyl)amino)-5-methylpyrimidin-4-yl)amino)phenyl)-2-methylpropane-2-sulfonamide]
- IC50 (ACK1 [1]): 19.8 nM
- EC50 (MDA-MB-231): 11000 nM
- EC50 (UKE1): > 10000 nM

SMILES: Cc1cnc(Nc2ccc(N3CCN(C)CC3)c(OC(C)C)c2)nc1Nc1cccc(NS(=O)(=O)C(C)(C)C)c1 [N-(3-((2-((3-isopropoxy-4-(4-methylpiperazin-1-yl)phenyl)amino)-5-methylpyrimidin-4-yl)amino)phenyl)-2-methylpropane-2-sulfonamide]
- IC50 (ACK1 [1]): 13 nM and 13.8 nM
- EC50 (MDA-MB-231): 213 nM
- EC50 (UKE1): 470 nM

SMILES: COc1cc(N2CCN(C)CC2)ccc1Nc1ncc(C)c(Nc2cccc(NS(=O)(=O)C(C)(C)C)c2)n1 [N-(3-((2-((2-methoxy-4-(4-methylpiperazin-1-yl)phenyl)amino)-5-methylpyrimidin-4-yl)amino)phenyl)-2-methylpropane-2-sulfonamide]
- IC50 (ACK1 [1]): 21.9 nM
- IC50 (ACK1 [2]): 34.5 nM

SMILES: COc1c(Nc2ncc(C)c(Nc3cccc(NS(=O)(=O)C(C)(C)C)c3)n2)ccc(N2CCN(C)CC2)c1F [N-(3-((2-((3-fluoro-2-methoxy-4-(4-methylpiperazin-1-yl)phenyl)amino)-5-methylpyrimidin-4-yl)amino)phenyl)-2-methylpropane-2-sulfonamide]
- IC50 (ACK1 [1]): 37.6 nM

SMILES: Cc1cnc(Nc2ccc(-c3cnn(C)c3)cc2OC(C)C)nc1Nc1cccc(NS(=O)(=O)C(C)(C)C)c1 [N-(3-((2-((2-isopropoxy-4-(1-methyl-1H-pyrazol-4-yl)phenyl)amino)-5-methylpyrimidin-4-yl)amino)phenyl)-2-methylpropane-2-sulfonamide]
- IC50 (ACK1 [1]): 149 nM

SMILES: COc1cc(Nc2ncc(Cl)c(Nc3ccc(NS(=O)(=O)C(C)(C)C)cc3)n2)ccc1N1CCN(C)CC1 [N-(4-((5-chloro-2-((3-methoxy-4-(4-methylpiperazin-1-yl)phenyl)amino)pyrimidin-4-yl)amino)phenyl)-2-methylpropane-2-sulfonamide]
- IC50 (ACK1 [1]): 17.5 nM

SMILES: Cc1cnc(Nc2ccc(N3CCN(C)CC3)c(OC(C)C)c2)nc1Nc1ccc(NS(=O)(=O)C(C)(C)C)cc1 [N-(4-((2-((3-isopropoxy-4-(4-methylpiperazin-1-yl)phenyl)amino)-5-methylpyrimidin-4-yl)amino)phenyl)-2-methylpropane-2-sulfonamide]
- IC50 (ACK1 [1]): 18.7 nM

SMILES: COc1cc(N2CCN(C)CC2)ccc1Nc1ncc(C)c(Nc2ccc(NS(=O)(=O)C(C)(C)C)cc2)n1 [N-(4-((2-((2-methoxy-4-(4-methylpiperazin-1-yl)phenyl)amino)-5-methylpyrimidin-4-yl)amino)phenyl)-2-methylpropane-2-sulfonamide]
- IC50 (ACK1 [1]): 7.62 nM

SMILES: CC(C)Oc1cc(Nc2ncc(Cl)c(Nc3ccc(NS(C)(=O)=O)cc3)n2)ccc1N1CCN(C)CC1 [N-(4-((5-chloro-2-((3-isopropoxy-4-(4-methylpiperazin-1-yl)phenyl)amino)pyrimidin-4-yl)amino)phenyl)methanesulfonamide]
- IC50 (ACK1 [1]): 26.7 nM

SMILES: CC(C)Oc1cc(Nc2ncc(Cl)c(Nc3ccc(NS(=O)(=O)C(C)(C)C)cc3)n2)ccc1N1CCN(C)CC1 [N-(4-((5-chloro-2-((3-isopropoxy-4-(4-methylpiperazin-1-yl)phenyl)amino)pyrimidin-4-yl)amino)phenyl)-2-methylpropane-2-sulfonamide]
- IC50 (ACK1 [1]): 15.5 nM

SMILES: CC(C)Oc1cc(Nc2ncc(Cl)c(Nc3cccc(NS(=O)(=O)C(C)(C)C)c3)n2)ccc1-c1cnn(C)c1 [N-(3-((5-chloro-2-((3-isopropoxy-4-(1-methyl-1H-pyrazol-4-yl)phenyl)amino)pyrimidin-4-yl)amino)phenyl)-2-methylpropane-2-sulfonamide]
- IC50 (ACK1 [1]): 64 nM

SMILES: CN1CCN(c2ccc(Nc3ncc(Cl)c(Nc4cccc(NS(=O)(=O)C(C)(C)C)c4)n3)c(OC3CCC3)c2)CC1 [N-(3-((5-chloro-2-((2-cyclobutoxy-4-(4-methylpiperazin-1-yl)phenyl)amino)pyrimidin-4-yl)amino)phenyl)-2-methylpropane-2-sulfonamide]
- IC50 (ACK1 [1]): 30 nM

SMILES: COc1cc(N2CCN(C)CC2)c(F)cc1Nc1ncc(C)c(Nc2ccc(NS(=O)(=O)C(C)(C)C)cc2)n1 [N-(4-((2-((5-fluoro-2-methoxy-4-(4-methylpiperazin-1-yl)phenyl)amino)-5-methylpyrimidin-4-yl)amino)phenyl)-2-methylpropane-2-sulfonamide]
- IC50 (ACK1 [1]): 30.8 nM

SMILES: Cc1cnc(Nc2ccc(N3CCN(C)CC3)cc2OC2CCC2)nc1Nc1cccc(NS(=O)(=O)C(C)(C)C)c1 [N-(3-((2-((2-cyclobutoxy-4-(4-methylpiperazin-1-yl)phenyl)amino)-5-methylpyrimidin-4-yl)amino)phenyl)-2-methylpropane-2-sulfonamide]
- IC50 (ACK1 [1]): 26.2 nM

SMILES: COc1cc(N2CCN(C(C)=O)CC2)ccc1Nc1ncc(C)c(Nc2cccc(NS(=O)(=O)C(C)(C)C)c2)n1 [N-(3-((2-((4-(4-acetylpiperazin-1-yl)-2-methoxyphenyl)amino)-5-methylpyrimidin-4-yl)amino)phenyl)-2-methylpropane-2-sulfonamide]
- IC50 (ACK1 [1]): 21.3 nM

SMILES: Cc1cnc(Nc2ccc(-c3cnn(C)c3)c(OC(C)C)c2)nc1Nc1ccc(NS(=O)(=O)C(C)(C)C)cc1 [N-(4-((2-((3-isopropoxy-4-(1-methyl-1H-pyrazol-4-yl)phenyl)amino)-5-methylpyrimidin-4-yl)amino)phenyl)-2-methylpropane-2-sulfonamide]
- IC50 (ACK1 [1]): 16.9 nM

SMILES: CC(=O)N1CCN(c2ccc(Nc3ncc(C)c(Nc4cccc(NS(=O)(=O)C(C)(C)C)c4)n3)cc2OC(C)C)CC1 [N-(3-((2-((4-(4-acetylpiperazin-1-yl)-3-isopropoxyphenyl)amino)-5-methylpyrimidin-4-yl)amino)phenyl)-2-methylpropane-2-sulfonamide]
- IC50 (ACK1 [1]): 13 nM

SMILES: CC(=O)N1CCN(c2ccc(Nc3ncc(C)c(Nc4cccc(NS(=O)(=O)C(C)(C)C)c4)n3)cc2)CC1 [N-(3-((2-((4-(4-acetylpiperazin-1-yl)phenyl)amino)-5-methylpyrimidin-4-yl)amino)phenyl)-2-methylpropane-2-sulfonamide]
- IC50 (ACK1 [1]): 15.3 nM
